Results from PubChem BioAssay AID2060892 (Molecular Pharmacology Branch, DTP, NCI, 2025).

Test system: HOP-62 complex spheroids with HUVEC/MSC, viability
Experiment: Anticancer human tumor HOP-62 cell line growth inhibition [RAS];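 further: spheroids exposed to agents for seven days before readout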;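 on viability, T/C: 100% = DMSO vehicle control viability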
Details: for IC50: curve of first compound; for viability, T/C: stronger effect = lower value; active means viability on the fitted dose curve at most 10% of control; inactive means the rest
How it was run: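 Multi-cell-type spheroids: tumor cells plus HUVEC endothelial cells and mesenchymal stem cells. RAS-pathway inhibitors were combined with targeted agents, each dosed in half-log steps down from clinical Cmax, or from 10 microM when Cmax was unknown.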

[1] = second compound 0.000949 µM, first compound 0.0316 µM
[2] = second compound 0.000949 µM, first compound 0.1 µM
[3] = second compound 0.000949 µM, first compound 0.316 µM
[4] = second compound 0.000949 µM, first compound 1 µM
[5] = second compound 0.000949 µM, first compound 3.16 µM
[6] = second compound 0.000949 µM, first compound 10 µM
[7] = second compound 0.003 µM, first compound 0.0316 µM
[8] = second compound 0.003 µM, first compound 0.1 µM
[9] = second compound 0.003 µM, first compound 0.316 µM
[10] = second compound 0.003 µM, first compound 1 µM
[11] = second compound 0.003 µM, first compound 3.16 µM
[12] = second compound 0.003 µM, first compound 10 µM
[13] = second compound 0.00949 µM, first compound 0.0316 µM
[14] = second compound 0.00949 µM, first compound 0.1 µM
[15] = second compound 0.00949 µM, first compound 0.316 µM
[16] = second compound 0.00949 µM, first compound 1 µM
[17] = second compound 0.00949 µM, first compound 3.16 µM
[18] = second compound 0.00949 µM, first compound 10 µM
[19] = second compound 0.03 µM, first compound 0.0316 µM
[20] = second compound 0.03 µM, first compound 0.1 µM
[21] = second compound 0.03 µM, first compound 0.316 µM
[22] = second compound 0.03 µM, first compound 1 µM
[23] = second compound 0.03 µM, first compound 3.16 µM
[24] = second compound 0.03 µM, first compound 10 µM
[25] = second compound 0.0949 µM, first compound 0.0316 µM
[26] = second compound 0.0949 µM, first compound 0.1 µM
[27] = second compound 0.0949 µM, first compound 0.316 µM
[28] = second compound 0.0949 µM, first compound 1 µM
[29] = second compound 0.0949 µM, first compound 3.16 µM
[30] = second compound 0.0949 µM, first compound 10 µM
[31] = second compound 0.3 µM, first compound 0.0316 µM
[32] = second compound 0.3 µM, first compound 0.1 µM
[33] = second compound 0.3 µM, first compound 0.316 µM
[34] = second compound 0.3 µM, first compound 1 µM
[35] = second compound 0.3 µM, first compound 3.16 µM
[36] = second compound 0.3 µM, first compound 10 µM

Cc1nc(N2CCC3(CC2)COC(C)C3N)c(CO)nc1Sc1ccnc(N)c1Cl (stereo unspecified) + CCn1c(-c2cccnc2C(C)OC)c2c3cc(ccc31)N1CCOC(CC(NC(=O)C(C(C)C)N(C)C(=O)C3(F)CCN(C(=O)C#CC(C)(C)N(C)C)CC3)C(=O)N3CCCC(N3)C(=O)OCC(C)(C)C2)C1
213 nM: IC50 (second compound 0.3 µM)
541 nM: IC50 (second compound 0.003 µM)
738 nM: IC50 (second compound 0.00949 µM)
302 nM: IC50 (second compound 0.0949 µM)
465 nM: IC50 (second compound 0.03 µM)
inactive: viability, T/C [1] 120% | viability, T/C [2] 101% | viability, T/C [3] 60.3% | viability, T/C [4] 65.7% | viability, T/C [5] 63.3% | viability, T/C [6] 31.3% | viability, T/C [7] 107% | viability, T/C [8] 80.1% | viability, T/C [9] 42.9% | viability, T/C [10] 55.6% | viability, T/C [11] 35.3% | viability, T/C [12] 18.3% | viability, T/C [13] 80.7% | viability, T/C [14] 59.4% | viability, T/C [15] 83.1% | viability, T/C [16] 41.3% | viability, T/C [17] 23.9% | viability, T/C [18] 22.4% | viability, T/C [19] 77.8% | viability, T/C [20] 70.5% | viability, T/C [21] 58.5% | viability, T/C [22] 34.9% | viability, T/C [23] 20.1% | viability, T/C [24] 20.9% | viability, T/C [25] 81.4% | viability, T/C [26] 64.2% | viability, T/C [27] 51.5% | viability, T/C [28] 35.5% | viability, T/C [29] 19.8% | viability, T/C [30] 23% | viability, T/C [31] 84.8% | viability, T/C [32] 66.1% | viability, T/C [33] 41.6% | viability, T/C [34] 26.5% | viability, T/C [35] 20.3% | viability, T/C [36] 19.4%
2920 nM: IC50 (second compound 0.000949 µM)

NC1c2ccccc2OC12CCN(c1cnc3c(N4CCCc5ncccc54)n[nH]c3n1)CC2 (stereo unspecified) + CCn1c(-c2cccnc2C(C)OC)c2c3cc(ccc31)N1CCOC(CC(NC(=O)C(C(C)C)N(C)C(=O)C3(F)CCN(C(=O)C#CC(C)(C)N(C)C)CC3)C(=O)N3CCCC(N3)C(=O)OCC(C)(C)C2)C1
52.7 nM: IC50 (second compound 0.00949 µM)
183 nM: IC50 (second compound 0.000949 µM)
inactive: viability, T/C [1] 91.2% | viability, T/C [2] 70.6% | viability, T/C [3] 27.8% | viability, T/C [4] 44.5% | viability, T/C [5] 33.4% | viability, T/C [6] 19.4% | viability, T/C [7] 69.4% | viability, T/C [8] 48.5% | viability, T/C [9] 60.5% | viability, T/C [10] 23.9% | viability, T/C [11] 19.3% | viability, T/C [12] 9.81% | viability, T/C [13] 60% | viability, T/C [14] 35.3% | viability, T/C [15] 29.6% | viability, T/C [16] 22.7% | viability, T/C [17] 14.8% | viability, T/C [18] 13.2% | viability, T/C [19] 64.1% | viability, T/C [20] 42.1% | viability, T/C [21] 24% | viability, T/C [22] 28.3% | viability, T/C [23] 12% | viability, T/C [24] 14.6% | viability, T/C [25] 53.3% | viability, T/C [26] 35.5% | viability, T/C [27] 20.7% | viability, T/C [28] 16.8% | viability, T/C [29] 11.5% | viability, T/C [30] 14.7% | viability, T/C [31] 44.4% | viability, T/C [32] 28.6% | viability, T/C [33] 18.4% | viability, T/C [34] 15.6% | viability, T/C [35] 13.5% | viability, T/C [36] 15.2%
429 nM: IC50 (second compound 0.003 µM)
< 31.6 nM: IC50 (second compound 0.3 µM)
64.6 nM: IC50 (second compound 0.03 µM)
39.1 nM: IC50 (second compound 0.0949 µM)

Nc1ccn(C2OC(CO)C(O)C2(F)F)c(=O)n1 (stereo unspecified) + CCn1c(-c2cccnc2C(C)OC)c2c3cc(ccc31)N1CCOC(CC(NC(=O)C(C(C)C)N(C)C(=O)C3(F)CCN(C(=O)C#CC(C)(C)N(C)C)CC3)C(=O)N3CCCC(N3)C(=O)OCC(C)(C)C2)C1
14 nM: IC50 (second compound 0.000949 µM)
8.77 nM: IC50 (second compound 0.3 µM)
inactive: viability, T/C (second compound 0.000949 µM, first compound 0.00316 µM) 111% | viability, T/C (second compound 0.000949 µM, first compound 0.01 µM) 66.9% | viability, T/C (second compound 0.003 µM, first compound 0.00316 µM) 104% | viability, T/C (second compound 0.003 µM, first compound 0.01 µM) 45.6% | viability, T/C [7] 18.4% | viability, T/C (second compound 0.00949 µM, first compound 0.00316 µM) 87.8% | viability, T/C (second compound 0.00949 µM, first compound 0.01 µM) 41% | viability, T/C [13] 22.8% | viability, T/C [14] 10.3% | viability, T/C (second compound 0.03 µM, first compound 0.00316 µM) 90% | viability, T/C (second compound 0.03 µM, first compound 0.01 µM) 51.2% | viability, T/C [19] 22.7% | viability, T/C (second compound 0.0949 µM, first compound 0.00316 µM) 83.9% | viability, T/C (second compound 0.0949 µM, first compound 0.01 µM) 48.5% | viability, T/C [25] 21.7% | viability, T/C (second compound 0.3 µM, first compound 0.00316 µM) 77.8% | viability, T/C (second compound 0.3 µM, first compound 0.01 µM) 45.9% | viability, T/C [31] 22.9% | viability, T/C [32] 8.24%
active: viability, T/C [1] 9.65% | viability, T/C [2] 7.4% | viability, T/C [3] 7.76% | viability, T/C [4] 5.24% | viability, T/C [8] 7.14% | viability, T/C [9] 8.39% | viability, T/C [10] 5.94% | viability, T/C [15] 10.9% | viability, T/C [16] 5.88% | viability, T/C [20] 8.44% | viability, T/C [21] 4.99% | viability, T/C [22] 7.65% | viability, T/C [26] 8.95% | viability, T/C [27] 5.53% | viability, T/C [28] 6.69% | viability, T/C [33] 8.97% | viability, T/C [34] 8.38%
9.58 nM: IC50 (second compound 0.0949 µM)
8.18 nM: IC50 (second compound 0.00949 µM)
10.6 nM: IC50 (second compound 0.03 µM)
9.19 nM: IC50 (second compound 0.003 µM)
